# Values of other authors, collected in patent US8367112B2, “Nanoparticulate carverdilol formulations” (Alkermes Pharma Ireland Limited, priority 2006, dated 2013).
# Read-outs that look alike come from different tables or passages of the source.
# Legend:
# [1] = in vivo, po
Compound,solubility (95% ethanol),solubility (dimethylsulfoxide),solubility (ethyl ether),"solubility (gastric fluid (simulated, TS, pH 1.1))","solubility (intestinal fluid (simulated, TS without pancreatin, pH 7.5))",solubility (isopropanol),solubility (methanol),solubility (methylene chloride),solubility (water),apparent mean terminal elimination half-life [1],plasma levels relative to S(−)-carvedilol [1]
"COc1ccccc1OCCNCC(O)COc1cccc2[nH]c3ccccc3c12 (racemic) [carvedilol, (±)-1-(Carbazol-4-yloxy)-3-[[2-(o-methoxyphenoxy)ethyl]amino]-2-propanol]",sparingly soluble,freely soluble,slightly soluble,practically insoluble,practically insoluble,sparingly soluble,soluble,soluble,practically insoluble,,
"COc1ccccc1OCCNC[C@H](O)COc1cccc2[nH]c3ccccc3c12 (single isomer, unassigned) [S(−)-enantiomer, S(−)-carvedilol]",,,,,,,,,,7 to 11 h,
COc1ccccc1OCCNC[C@@H](O)COc1cccc2[nH]c3ccccc3c12 [R(+)-carvedilol],,,,,,,,,,5 to 9 h,2-3 times higher
